The results in this text go back to PMC4471902, “Block of NMDA receptor channels by endogenous neurosteroids: implications for the agonist induced conformational states of the channel vestibule” (Scientific Reports, 2015).

In one experiment the target is T1, GluN1ΔN/GluN2BΔN (Rattus norvegicus, UniProt P35439+Q00960, DEL32-386).
T1 construct: expressed in transfected cells; host or cells: HEK293
Nature of the experiment: Whole-cell patch-clamp of N-terminal truncated NMDARs in HEK293 cells. Format: cell-based. To be noted: 1 mM glutamate, PA-S 50 µM. The source says: (§1) Human embryonic kidney (HEK293) cells were transfected with expression vectors containing: GluN1–1a (GenBank accession number U08261)[52]; GluN2B (GenBank accession number M91562); GluN1-4a(F484A), (generous gift from Dr. J. J. Woodward)[53] (Smothers & Woodward, 2009); GluN3A (generous gift from Dr. S. A. Lipton)[54] (GenBank accession number NM_138546); GluN1ΔN with deleted 354 amino acids in the NTD (32 to 386); GluN1ΔC with an introduced stop codon in 838 of the CTD GluN2BΔN) with deleted 354 amino acids in the NTD (32 to 386); GluN2BΔC with an introduced stop codon in 844 of the CTD[55]; GluR0 (GenBank accession number Synechocystis PCC 6803) (generous gift from Dr. M. L. Mayer)[18]; and green fluorescent protein (GFP) (pQBI 25, Takara, Tokyo, Japan) genes, as described previously. The Quick-Change site-directed mutagenesis kit (Agilent Technologies, Santa Clara, CA, USA) was used to generate specific point mutations in the M1/M3 region according to the manufacturer’s instructions using manually designed primers purchased from Sigma. Modified DNA plasmids were transformed into competent XL10-Gold E.coli cells, positive clones were selected, and isolated DNA was sequenced. […]
(§2) The IC50 was determined from a single dose of a steroid using the formula [drawing 1] where I is the relative degree of inhibition and [steroid] is the steroid concentration used. […]

For experiment [1], the target named is T2, GluN1(T648A)/GluN2B receptors (Rattus norvegicus, UniProt P35439+Q00960, T648A).
T2 construct: expressed in transfected cells; host or cells: HEK293
As to the kind of experiment: Whole-cell patch-clamp of GluN1(T648A)/GluN2B receptor responses in HEK293 cells. Format: cell-based. To be noted: for inhibition at 200 µM: HEK293, PA-S 200 μM. The source says: (§3) Human embryonic kidney (HEK293) cells were transfected with expression vectors containing: GluN1–1a (GenBank accession number U08261)[52]; GluN2B (GenBank accession number M91562); GluN1-4a(F484A), (generous gift from Dr. J. J. Woodward)[53] (Smothers & Woodward, 2009); GluN3A (generous gift from Dr. S. A. Lipton)[54] (GenBank accession number NM_138546); GluN1ΔN with deleted 354 amino acids in the NTD (32 to 386); GluN1ΔC with an introduced stop codon in 838 of the CTD GluN2BΔN) with deleted 354 amino acids in the NTD (32 to 386); GluN2BΔC with an introduced stop codon in 844 of the CTD[55]; GluR0 (GenBank accession number Synechocystis PCC 6803) (generous gift from Dr. M. L. Mayer)[18]; and green fluorescent protein (GFP) (pQBI 25, Takara, Tokyo, Japan) genes, as described previously. The Quick-Change site-directed mutagenesis kit (Agilent Technologies, Santa Clara, CA, USA) was used to generate specific point mutations in the M1/M3 region according to the manufacturer’s instructions using manually designed primers purchased from Sigma. Modified DNA plasmids were transformed into competent XL10-Gold E.coli cells, positive clones were selected, and isolated DNA was sequenced. […] All mutations were verified by DNA sequencing (Macrogen, Seoul, Korea or SeQme, Dobris, Czech Republic). The amino acids are numbered according to the full-length protein, including the signal peptide, with the initiating methionine as 1.
(§4) Experiments were performed 24–48 hrs after transfection on cells transfected with GluN1/GluN2B/GFP plasmids. Whole-cell voltage-clamp recordings from HEK293 cells were made with a patch-clamp amplifier (Axopatch 200B; Axon Instruments, Inc., Foster City, CA) after a capacitance and series resistance (<10 MΩ) compensation of 80–90%.
(§5) Patch pipettes (3–5 MΩ) were filled with a solution containing (in mM): 120 gluconic acid, 15 CsCl, 10 BAPTA, 10 HEPES, 3 MgCl2, 1 CaCl2, and 2 ATP-Mg salt (pH-adjusted to 7.2 with CsOH). When GluR0 receptor responses were studied, intracellular solution contained (in mM): 120 gluconic acid, 15 KCl, 10 BAPTA, 10 HEPES, 3 MgCl2, 1 CaCl2, and 2 ATP-Mg salt (pH-adjusted to 7.2 with KOH). Extracellular solution (ECS) contained the following (in mM): 160 NaCl, 2.5 KCl, 10 HEPES, 10 glucose, 0.2 EDTA, and 0.7 CaCl2 (pH-adjusted to 7.3 with NaOH). Glycine (10 μM), an NMDAR co-agonist, was present in the control and test solutions. All (PA-S and PA-A) solutions were made from freshly prepared 20 mM PA-S and 5 mM PA-A stock in dimethyl sulfoxide (DMSO). The final dilution to ECS was made at 50 °C and followed by 1 min sonication (SONOREX DIGITEC DT 100/H, BADELIN electronic, Berlin, Germany). The same concentration of DMSO was added to all extracellular solutions. Drug applications were made with a microprocessor-controlled multibarrel fast-perfusion system. Changes in the glutamate-induced current in HEK293 cells transfected by GluN1/GluN2B subunits were used to estimate the rate of solution exchange around the cell. Standard ECS was switched to the ECS diluted by water (50%) during glutamate application. The osmolarity was adjusted by sucrose to match the standard ECS. Glutamate (1 mM), glycine (10 μM) and pH was maintained constant in both solutions. The solution exchange rate was estimated to be τ = 4.3 ± 0.3 ms (n = 6) for lifted cells and τ = 12.0 ± 0.9 ms (n = 6) for the attached cells.
The IC50 was determined from a single dose of a steroid using the formula [drawing 1] where I is the relative degree of inhibition and [steroid] is the steroid concentration used. Calculations of IC50 were made assuming 100% inhibition at saturating steroid concentration this is valid for both PA-S and PA-A[12][13]. […]

The target of another experiment is T3, GluN1ΔC/GluN2BΔC (Rattus norvegicus, UniProt P35439+Q00960).
T3 construct: expressed in transfected cells; host or cells: HEK293
Nature of the experiment: Whole-cell patch-clamp of C-terminal truncated NMDARs in HEK293 cells. Format: cell-based.
From the text: as §1, §2
(The patch-clamp technique gives a direct electrical read-out from membranes.)

The subject of experiment [2] is GluR0 (potassium-selective prokaryotic glutamate receptor). Nature of the experiment: Whole-cell patch-clamp of GluR0 receptor responses in transfected HEK293 cells. It counts as cell-based, Synechocystis PCC 6803. To be noted: 1 mM glutamate, PA-S 300 µM.
From the text: as §3, with “The amino acids are numbered according to the full-length protein, including the signal peptide, with the initiating methionine as 1.” left out

The test system of experiment [3] is mutated GluN1/GluN2B receptors. As to the kind of experiment: PA-S sensitivity of NMDARs mutated in the M1 and M3 regions of GluN1 and GluN2B (HEK293 cells). It counts as cell-based.
From the text: as §3, §4
as §5, with “The solution exchange rate was estimated to be τ = 4.3 ± 0.3 ms (n = 6) for lifted cells and τ = 12.0 ± 0.9 ms (n = 6) for the attached cells.” left out
as §2

Experiment [4] concerns the target T4, GluN1-4a(F484A)/eGFP-GluN3A receptor (Rattus norvegicus, UniProt P35439+Q9R1M7, F484A).
T4 construct: eGFP; expressed in transfected cells; host or cells: HEK293
Nature of the experiment: Whole-cell patch-clamp of glycine-activated GluN1-4a(F484A)/eGFP-GluN3A receptor responses in HEK293 cells. Format: cell-based.
From the text: as §1, §2

Where a name gives a salt, the structure may show the parent alone. Read-outs that look alike come from different tables or passages of the source.

T4 sequence (Q9R1M7 24-1135, other chains not shown): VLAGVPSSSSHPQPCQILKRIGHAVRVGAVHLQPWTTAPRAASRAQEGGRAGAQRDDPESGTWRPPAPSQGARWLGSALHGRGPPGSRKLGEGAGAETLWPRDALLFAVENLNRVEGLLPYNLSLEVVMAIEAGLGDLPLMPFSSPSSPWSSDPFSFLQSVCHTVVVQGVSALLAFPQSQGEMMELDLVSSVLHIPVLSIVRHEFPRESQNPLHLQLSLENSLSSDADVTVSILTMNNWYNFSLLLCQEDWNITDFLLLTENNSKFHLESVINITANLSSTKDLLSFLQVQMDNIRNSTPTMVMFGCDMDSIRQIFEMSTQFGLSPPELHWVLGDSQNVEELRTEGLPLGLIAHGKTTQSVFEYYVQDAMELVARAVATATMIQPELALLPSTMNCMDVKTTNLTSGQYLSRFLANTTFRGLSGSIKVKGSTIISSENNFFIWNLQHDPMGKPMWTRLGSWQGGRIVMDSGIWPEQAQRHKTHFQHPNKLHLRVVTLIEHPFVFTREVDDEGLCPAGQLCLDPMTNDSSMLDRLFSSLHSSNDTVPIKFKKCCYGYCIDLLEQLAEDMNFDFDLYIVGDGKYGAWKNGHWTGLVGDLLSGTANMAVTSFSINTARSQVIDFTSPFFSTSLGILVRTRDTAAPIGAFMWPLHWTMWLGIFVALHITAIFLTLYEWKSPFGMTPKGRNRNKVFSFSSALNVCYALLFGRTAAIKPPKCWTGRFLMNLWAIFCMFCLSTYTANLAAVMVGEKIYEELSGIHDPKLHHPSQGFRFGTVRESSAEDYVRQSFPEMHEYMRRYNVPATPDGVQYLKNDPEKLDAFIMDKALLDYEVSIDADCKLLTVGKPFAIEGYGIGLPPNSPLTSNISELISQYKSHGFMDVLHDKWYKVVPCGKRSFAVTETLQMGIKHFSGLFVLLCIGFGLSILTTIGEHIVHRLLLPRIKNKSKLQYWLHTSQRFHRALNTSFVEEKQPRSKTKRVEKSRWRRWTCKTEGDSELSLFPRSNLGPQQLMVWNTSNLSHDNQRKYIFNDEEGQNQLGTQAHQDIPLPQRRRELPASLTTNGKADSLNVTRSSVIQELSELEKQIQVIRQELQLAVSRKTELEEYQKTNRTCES

As for `CC(=O)[C@H]1CC[C@H]2[C@@H]3CC[C@@H]4C[C@H](OS(=O)(=O)O)CC[C@]4(C)[C@H]3CC[C@]12C` [PA-S, 20-oxo-5β-pregnan-3α-yl sulfate], the half-maximal inhibitory concentration (IC50) (usually the concentration needed to halve the response being measured) against GluN1ΔN/GluN2BΔN is 41 ± 2 µM; in experiment [1], 758 ± 27 µM; against GluN1ΔC/GluN2BΔC, 34 ± 3 µM; in experiment [3] (residues whose mutation decreased the IC50 by half (GluN1: F654A; GluN2B: P547A/S548A, F550A, L551A/E552A, F637A/F638A, Y646A, M654A, E657A/E658A)) it was under 21 µM; in experiment [3] (residues whose mutation increased the IC50 more than two-fold (GluN1: Y647A, T648A, A649T, N650A/L651A, V656A; GluN2B: S645A, T647A, A652T)), over 84 µM; in experiment [4] (glycine-activated, PA-S 50 µM), 27 ± 3 µM. Moreover, the “voltage dependence of steroid inhibition” value in experiment [1] is reported as “voltage independent”. Further, the inhibition (as a rule, the percentage by which the read-out fell short of the control) at 200 µM stood at 13.6 ± 0.9% in experiment [1] (read-out: degree of inhibition of agonist-evoked currents) and 13.8 ± 0.7% in experiment [1] (read-out: degree of inhibition of spontaneous currents). For the same molecule, in experiment [1] (PA-S 200 µM, 1 mM glutamate), the “intercept of linear fit of mean inhibition versus holding potential” value is given as 15.8. For the same molecule, in experiment [2], the “effect on glutamate-induced responses” value is listed as “inhibited”. In addition, the “difference of PA-S IC50 between GluN1(T648A)/GluN2B and GluN1/GluN2B(T647A) receptors” value in experiment [3] was 5.4 fold. In addition, the “change of PA-S IC50 relative to the WT receptor value” was “less than half” in experiment [3] (GluN1: F654A, GluN2B: P547A/S548A, F550A, L551A/E552A, F637A/F638A, Y646A, M654A, E657A/E658A) and “over two-fold” in experiment [3] (GluN1: Y647A, T648A, A649T, N650A/L651A, V656A, GluN2B: S645A, T647A, A652T). The “degree of PA-S inhibition, mutated vs WT GluN1-4a subunit in combination with GluN3A” value in experiment [4] is “no significant difference”.
